Measurements: US20180325914A1, “INCREASING STORAGE OF VITAMIN A, VITAMIN D AND/OR LIPIDS” (Salk Institute for Biological Studies, priority 2014, published 2018)

System: primary HSCs
[1] = mRNA-Seq expression, primary HSCs, day 6 with JQ1

**Q.** Which results are given for `Cc1sc2c(c1C)C(c1ccc(Cl)cc1)=N[C@@H](CC(=O)OC(C)(C)C)c1nnc(C)n1-2` [JQ1, (S)-tert-butyl 2-(4-(4-chlorophenyl)-2,3,9-trimethyl-6H-thieno[3,2-f][1,2,4]triazolo[4,3-a][1,4]diazepin-6-yl)acetate]?
**A.** Elfn1 value_2 (Day_6_JQ1) [1]: 0.4141; Eln value_2 (Day_6_JQ1) [1]: 0.6077; Esrp2 value_2 (Day_6_JQ1) [1]: 0.7459; Etv4 value_2 (Day_6_JQ1) [1]: 1.116; F3 value_2 (Day_6_JQ1) [1]: 32.9312; Fam132b value_2 (Day_6_JQ1) [1]: 0.6136; Fam198b value_2 (Day_6_JQ1) [1]: 1.907; Fblim1 value_2 (Day_6_JQ1) [1]: 12.2302; Fibin value_2 (Day_6_JQ1) [1]: 1.847; Fkbp10 value_2 (Day_6_JQ1) [1]: 27.4534; Fkbp11 value_2 (Day_6_JQ1) [1]: 6.955; Fst value_2 (Day_6_JQ1) [1]: 3.079; Fxyd6 value_2 (Day_6_JQ1) [1]: 0.9921; Gbx2 value_2 (Day_6_JQ1) [1]: 0.4331; Gjb3 value_2 (Day_6_JQ1) [1]: 0.08229; Gjb5 value_2 (Day_6_JQ1) [1]: 0.1388; Gm12824 value_2 (Day_6_JQ1) [1]: 0.8107; Gpr176 value_2 (Day_6_JQ1) [1]: 5.413; Has2 value_2 (Day_6_JQ1) [1]: 1.812; Hebp2 value_2 (Day_6_JQ1) [1]: 0.7684; Hhipl1 value_2 (Day_6_JQ1) [1]: 0.517; Hsd11b1 value_2 (Day_6_JQ1) [1]: 3.839; Hspb2 value_2 (Day_6_JQ1) [1]: 6.826; Hspb7 value_2 (Day_6_JQ1) [1]: 0.2986; Htra3 value_2 (Day_6_JQ1) [1]: 1.896; Ivl value_2 (Day_6_JQ1) [1]: 0.5056; Jph2 value_2 (Day_6_JQ1) [1]: 3.451; Kcnmb1 value_2 (Day_6_JQ1) [1]: 0.01726; Kctd15 value_2 (Day_6_JQ1) [1]: 1.124; Lmod1 value_2 (Day_6_JQ1) [1]: 5.533; Lox14 value_2 (Day_6_JQ1) [1]: 6.181; Lox value_2 (Day_6_JQ1) [1]: 102.497; Ltbp1 value_2 (Day_6_JQ1) [1]: 3.833; Ltbp2 value_2 (Day_6_JQ1) [1]: 4.7344; Mfap4 value_2 (Day_6_JQ1) [1]: 0.2994; Mfap5 value_2 (Day_6_JQ1) [1]: 1.011; Mgp value_2 (Day_6_JQ1) [1]: 22.5571; Mmp23 value_2 (Day_6_JQ1) [1]: 6.014; Mrap value_2 (Day_6_JQ1) [1]: 0.2549; Mrgprf value_2 (Day_6_JQ1) [1]: 1.3677; Myl9 value_2 (Day_6_JQ1) [1]: 142.669; Naalad2 value_2 (Day_6_JQ1) [1]: 0.9739; Nfatc4 value_2 (Day_6_JQ1) [1]: 2.235; Npr3 value_2 (Day_6_JQ1) [1]: 8.408; Olfm2 value_2 (Day_6_JQ1) [1]: 0.8372; P2ry14 value_2 (Day_6_JQ1) [1]: 6.946; P4ha3 value_2 (Day_6_JQ1) [1]: 1.335; Pappa value_2 (Day_6_JQ1) [1]: 0.6606; Pdgfc value_2 (Day_6_JQ1) [1]: 1.527; Pdgfrl value_2 (Day_6_JQ1) [1]: 0.4741; Pdlim3 value_2 (Day_6_JQ1) [1]: 0.5953; Pla1a value_2 (Day_6_JQ1) [1]: 2.047; Postn value_2 (Day_6_JQ1) [1]: 58.0905; Prelid2 value_2 (Day_6_JQ1) [1]: 1.71; Prkar1b value_2 (Day_6_JQ1) [1]: 1.1011; Pstpip1 value_2 (Day_6_JQ1) [1]: 0.2607; Ptgs2 value_2 (Day_6_JQ1) [1]: 2.221; Ptprn value_2 (Day_6_JQ1) [1]: 5.204; Rap1gap2 value_2 (Day_6_JQ1) [1]: 2.58; Rasl12 value_2 (Day_6_JQ1) [1]: 0.3063; Rgs4 value_2 (Day_6_JQ1) [1]: 2.345; Saa3 value_2 (Day_6_JQ1) [1]: 10.7546; Serpinb9b value_2 (Day_6_JQ1) [1]: 4.136; Serpinf1 value_2 (Day_6_JQ1) [1]: 66.5572; Sertad4 value_2 (Day_6_JQ1) [1]: 0.6904; Slc16a3 value_2 (Day_6_JQ1) [1]: 10.7025; Sorcs2 value_2 (Day_6_JQ1) [1]: 0.1588; Spon2 value_2 (Day_6_JQ1) [1]: 12.3682; Srpx2 value_2 (Day_6_JQ1) [1]: 2.998; Stra6 value_2 (Day_6_JQ1) [1]: 0.07484; Syt13 value_2 (Day_6_JQ1) [1]: 6.257; Tfpi2 value_2 (Day_6_JQ1) [1]: 4.486; Thy1 value_2 (Day_6_JQ1) [1]: 2.222; Tll1 value_2 (Day_6_JQ1) [1]: 0.3916; Tmeff1 value_2 (Day_6_JQ1) [1]: 5.181; Tmem200a value_2 (Day_6_JQ1) [1]: 0.3192; Tnfsf8 value_2 (Day_6_JQ1) [1]: 0.1581; Tnfsf13b value_2 (Day_6_JQ1) [1]: 1.119; Tnfsf15 value_2 (Day_6_JQ1) [1]: 0.07599; Tnfsf18 value_2 (Day_6_JQ1) [1]: 0.24; Trpc6 value_2 (Day_6_JQ1) [1]: 0.05189; Wbscr17 value_2 (Day_6_JQ1) [1]: 0.7256; Wisp1 value_2 (Day_6_JQ1) [1]: 4.262; Wisp2 value_2 (Day_6_JQ1) [1]: 1.369; Wnt11 value_2 (Day_6_JQ1) [1]: 1.299; Zfp827 value_2 (Day_6_JQ1) [1]: 0.4625; 1110003E01Rik value_2 (mRNA-Seq, sample Day_6_JQ1): 69.1288; 1600014C10Rik value_2 (mRNA-Seq, sample Day_6_JQ1): 21.437; 2310022B05Rik value_2 (mRNA-Seq, sample Day_6_JQ1): 132.474; Adam15 value_2 (mRNA-Seq, sample Day_6_JQ1): 78.5951; Afap1l2 value_2 (mRNA-Seq, sample Day_6_JQ1): 58.9193; Ahdc1 value_2 (mRNA-Seq, sample Day_6_JQ1): 13.24; Apln value_2 (mRNA-Seq, sample Day_6_JQ1): 16.0329; Arhgap11a value_2 (mRNA-Seq, sample Day_6_JQ1): 12.9839; Arhgef17 value_2 (mRNA-Seq, sample Day_6_JQ1): 35.1441; Aurkb value_2 (mRNA-Seq, sample Day_6_JQ1): 18.2306; BC018242 value_2 (mRNA-Seq, sample Day_6_JQ1): 17.3751; BC031353 value_2 (mRNA-Seq, sample Day_6_JQ1): 10.0028; BC046404 value_2 (mRNA-Seq, sample Day_6_JQ1): 27.3155; Bambi value_2 (mRNA-Seq, sample Day_6_JQ1): 20.2742; Basp1 value_2 (mRNA-Seq, sample Day_6_JQ1): 173.108; Bicc1 value_2 (mRNA-Seq, sample Day_6_JQ1): 86.5801; Bphl value_2 (mRNA-Seq, sample Day_6_JQ1): 18.4476; C330027C09Rik value_2 (mRNA-Seq, sample Day_6_JQ1): 10.1673; Cadm4 value_2 (mRNA-Seq, sample Day_6_JQ1): 23.19; Cbx5 value_2 (mRNA-Seq, sample Day_6_JQ1): 28.9059
